Measurements as given in PubChem BioAssay AID330 (DTP/NCI, 2004).
“And” between values parts separate entries of the source, which are not always exact repeats. Equal entries are not always repeated. Inconclusive results and toxic doses are left out.

Tested on: P388 leukemia ip, CD2F1 mice, survival T/C
Assay: NCI In Vivo Anticancer Drug Screen. Data for tumor model P388 Leukemia (intraperitoneal) in CD2F1 (CDF1) mice
Details: endpoint: median survival time, higher = longer survival
Procedure, shortened: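 Mice carrying the transplanted tumor received test compound or vehicle. Survival was recorded in each group, and the value is the treated-group measurement divided by that of the vehicle-treated control group.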

[1] = dose: 100.0 mg/kg/injection, schedule: Q01DX005 (ip), vehicle: saline with Tween-80
[2] = dose: 200.0 mg/kg/injection, schedule: Q01DX005 (ip), vehicle: saline with Tween-80
[3] = dose: 50.0 mg/kg/injection, schedule: Q01DX005 (ip), vehicle: Klucel (hydroxypropylcellulose) (HPC)
[4] = dose: 100.0 mg/kg/injection, schedule: Q01DX005 (ip), vehicle: Klucel (hydroxypropylcellulose) (HPC)
[5] = dose: 200.0 mg/kg/injection, schedule: Q01DX005 (ip), vehicle: Klucel (hydroxypropylcellulose) (HPC)
[6] = dose: 50.0 mg/kg/injection, schedule: Q01DX009 (ip), vehicle: saline with Tween-80
[7] = dose: 100.0 mg/kg/injection, schedule: Q01DX009 (ip), vehicle: saline with Tween-80
[8] = dose: 200.0 mg/kg/injection, schedule: Q01DX009 (ip), vehicle: saline with Tween-80
[9] = dose: 30.0 mg/kg/injection, schedule: Q01DX009 (ip), vehicle: saline with Tween-80
[10] = dose: 50.0 mg/kg/injection, schedule: Q01DX009 (ip), vehicle: Klucel (hydroxypropylcellulose) (HPC)
[11] = dose: 100.0 mg/kg/injection, schedule: Q01DX009 (ip), vehicle: Klucel (hydroxypropylcellulose) (HPC)
[12] = dose: 200.0 mg/kg/injection, schedule: Q01DX009 (ip), vehicle: Klucel (hydroxypropylcellulose) (HPC)
[13] = dose: 60.0 mg/kg/injection, schedule: Q01DX005 (ip), vehicle: Klucel (hydroxypropylcellulose) (HPC)
[14] = dose: 120.0 mg/kg/injection, schedule: Q01DX005 (ip), vehicle: Klucel (hydroxypropylcellulose) (HPC)
[15] = dose: 50.0 mg/kg/injection, schedule: Q01DX005 (ip), vehicle: saline
[16] = dose: 100.0 mg/kg/injection, schedule: Q01DX005 (ip), vehicle: saline
[17] = dose: 200.0 mg/kg/injection, schedule: Q01DX005 (ip), vehicle: saline

## O=C(Nc1nncs1)c1cccs1
dose: 50.0 mg/kg/injection, schedule: Q04DX002 (ip), vehicle: saline with Tween-80
  T/C: 100 % of control
dose: 50.0 mg/kg/injection, schedule: Q04DX002 (ip), vehicle: saline
  T/C: 113 % of control
[1]
  T/C: 103 % of control
dose: 100.0 mg/kg/injection, schedule: Q04DX002 (ip), vehicle: saline with Tween-80
  T/C: 104 % of control and 114 % of control
dose: 100.0 mg/kg/injection, schedule: Q04DX002 (ip), vehicle: saline
  T/C: 106 % of control
[2]
  T/C: 101 % of control
dose: 200.0 mg/kg/injection, schedule: Q04DX002 (ip), vehicle: saline with Tween-80
  T/C: 114 % of control
dose: 200.0 mg/kg/injection, schedule: Q04DX002 (ip), vehicle: saline
  T/C: 122 % of control
dose: 400.0 mg/kg/injection, schedule: Q01DX005 (ip), vehicle: saline with Tween-80
  T/C: 96 % of control
dose: 600.0 mg/kg/injection, schedule: Q04DX002 (ip), vehicle: saline with Tween-80
  T/C: 160 % of control
dose: 800.0 mg/kg/injection, schedule: Q01DX005 (ip), vehicle: saline with Tween-80
  T/C: 104 % of control

## C=CC(C)(C)N1C(=O)C(C(C)=O)=C(O)C1Cc1c[nH]c2ccccc12 (stereo not drawn)
dose: 8.75 mg/kg/injection, schedule: Q01DX005 (ip), vehicle: Klucel (hydroxypropylcellulose) (HPC)
  T/C: 99 % of control
dose: 17.5 mg/kg/injection, schedule: Q01DX005 (ip), vehicle: Klucel (hydroxypropylcellulose) (HPC)
  T/C: 99 % of control
dose: 35.0 mg/kg/injection, schedule: Q01DX005 (ip), vehicle: Klucel (hydroxypropylcellulose) (HPC)
  T/C: 97 % of control

## C=C(C)C1CC=C(C)/C(=N/NC(=O)c2cccnc2)C1 (stereo not drawn)
[3]
  T/C: 116 % of control
[4]
  T/C: 101 % of control
[5]
  T/C: 109 % of control

## CCCCCCC(=O)/C=C/c1cc(OC)ccc1OC
dose: 12.5 mg/kg/injection, schedule: Q01DX009 (ip), vehicle: saline with Tween-80
  T/C: 100 % of control
dose: 25.0 mg/kg/injection, schedule: Q01DX009 (ip), vehicle: saline with Tween-80
  T/C: 99 % of control
[6]
  T/C: 99 % of control
[7]
  T/C: 99 % of control and 96 % of control
[8]
  T/C: 97 % of control

## Cc1cc(OC(=O)Nc2cc([N+](=O)[O-])ccc2C)c(C)cc1I
dose: 12.5 mg/kg/injection, schedule: Q01DX009 (ip), vehicle: saline
  T/C: 99 % of control
dose: 25.0 mg/kg/injection, schedule: Q01DX009 (ip), vehicle: saline
  T/C: 97 % of control
dose: 50.0 mg/kg/injection, schedule: Q01DX009 (ip), vehicle: saline
  T/C: 100 % of control and 91 % of control
dose: 100.0 mg/kg/injection, schedule: Q01DX009 (ip), vehicle: saline
  T/C: 92 % of control
dose: 200.0 mg/kg/injection, schedule: Q01DX009 (ip), vehicle: saline
  T/C: 100 % of control

## Fc1ccc(Oc2ccc(F)cc2)cc1
dose: 50.0 mg/kg/injection, schedule: Q04DX003 (ip), vehicle: saline with Tween-80
  T/C: 106 % of control
dose: 100.0 mg/kg/injection, schedule: Q04DX003 (ip), vehicle: saline with Tween-80
  T/C: 107 % of control
dose: 200.0 mg/kg/injection, schedule: Q04DX003 (ip), vehicle: saline with Tween-80
  T/C: 111 % of control
dose: 400.0 mg/kg/injection, schedule: Q04DX003 (ip), vehicle: saline with Tween-80
  T/C: 109 % of control

## COc1ccc2nccc(CO)c2c1
[3]
  T/C: 102 % of control
[4]
  T/C: 102 % of control
[5]
  T/C: 96 % of control

## CN1CCC(O)(/C=C\C2(O)CCN(C)CC2)CC1
dose: 100.0 mg/kg/injection, schedule: Q01DX001 (ip), vehicle: saline
  T/C: 96 % of control
dose: 200.0 mg/kg/injection, schedule: Q01DX001 (ip), vehicle: saline
  T/C: 89 % of control
dose: 400.0 mg/kg/injection, schedule: Q01DX001 (ip), vehicle: saline
  T/C: 107 % of control

## C=C(C)c1nc(N)nc(-c2ccc(OC)cc2)n1
dose: 100.0 mg/kg/injection, schedule: Q04DX002 (ip), vehicle: Klucel (hydroxypropylcellulose) (HPC)
  T/C: 98 % of control
dose: 200.0 mg/kg/injection, schedule: Q04DX002 (ip), vehicle: Klucel (hydroxypropylcellulose) (HPC)
  T/C: 94 % of control
dose: 400.0 mg/kg/injection, schedule: Q04DX002 (ip), vehicle: Klucel (hydroxypropylcellulose) (HPC)
  T/C: 93 % of control

## Clc1ccc(OCC(COc2ccc(Cl)cc2)(COc2ccc(Cl)cc2)COc2ccc(Cl)cc2)cc1
dose: 7.5 mg/kg/injection, schedule: Q01DX009 (ip), vehicle: saline with Tween-80
  T/C: 99 % of control
dose: 15.0 mg/kg/injection, schedule: Q01DX009 (ip), vehicle: saline with Tween-80
  T/C: 104 % of control
[9]
  T/C: 95 % of control

## CC(CO)CCC1OC2CC3C4CC=C5CC(O)CCC5(C)C4CCC3(C)C2C1C (stereo not drawn)
dose: 2.25 mg/kg/injection, schedule: Q01DX005 (ip), vehicle: Klucel (hydroxypropylcellulose) (HPC)
  T/C: 98 % of control
dose: 4.5 mg/kg/injection, schedule: Q01DX005 (ip), vehicle: Klucel (hydroxypropylcellulose) (HPC)
  T/C: 100 % of control
dose: 9.0 mg/kg/injection, schedule: Q01DX005 (ip), vehicle: Klucel (hydroxypropylcellulose) (HPC)
  T/C: 88 % of control
dose: 36.0 mg/kg/injection, schedule: Q01DX005 (ip), vehicle: Klucel (hydroxypropylcellulose) (HPC)
  T/C: 87 % of control

## O=S(=O)(NCCSSCCNS(=O)(=O)c1ccc2ccccc2c1)c1ccc2ccccc2c1
[10]
  T/C: 91 % of control
[11]
  T/C: 92 % of control
[12]
  T/C: 88 % of control

## N/C(=C\c1cnc2ccccc2n1)c1ccccc1Cl
[13]
  T/C: 91 % of control
[14]
  T/C: 89 % of control

## CN(C)[C@@H]1C(=O)C(C(N)=O)=C(O)[C@@]2(O)C(=O)C3=C(O)c4c(O)ccc(Cl)c4[C@@](C)(O)[C@H]3C[C@@H]12
dose: 100.0 mg/kg/injection, schedule: Q04DX003 (ip), vehicle: saline
  T/C: 104 % of control
dose: 200.0 mg/kg/injection, schedule: Q04DX003 (ip), vehicle: saline
  T/C: 113 % of control

## CCOc1c(C)cc(C(C)c2cc3c(cc2OC)OCO3)cc1C (stereo not drawn)
dose: 50.0 mg/kg/injection, schedule: Q01DX005 (ip), vehicle: saline with Tween-80
  T/C: 97 % of control
[1]
  T/C: 99 % of control
[2]
  T/C: 107 % of control

## CC(C)C1OC(=O)/C=C/C=C/C=C/C=C/C=C/CC(O)C(C)C(O)CC(O)CC(O)CC(O)CC(O)CC(O)CC(O)/C=C/C1C (stereo not drawn)
dose: 1.56 mg/kg/injection, schedule: Q01DX009 (ip), vehicle: saline
  T/C: 100 % of control
dose: 3.12 mg/kg/injection, schedule: Q01DX009 (ip), vehicle: saline
  T/C: 96 % of control
dose: 6.25 mg/kg/injection, schedule: Q01DX009 (ip), vehicle: saline
  T/C: 102 % of control and 92 % of control

## CCSc1n[nH]c(=O)n1C
[15]
  T/C: 99 % of control and 110 % of control
[16]
  T/C: 108 % of control and 114 % of control and 97 % of control
[17]
  T/C: 108 % of control and 121 % of control and 98 % of control
dose: 400.0 mg/kg/injection, schedule: Q01DX005 (ip), vehicle: saline
  T/C: 101 % of control and 109 % of control

## CCC12OCCN1CC(C)O2 (stereo not drawn)
[6]
  T/C: 98 % of control
[7]
  T/C: 111 % of control
[8]
  T/C: 113 % of control
dose: 400.0 mg/kg/injection, schedule: Q01DX009 (ip), vehicle: saline with Tween-80
  T/C: 119 % of control

## Cc1ccc(S(=O)(=O)N2CC3CC(C2)C(=O)NC3=O)cc1
[10]
  T/C: 104 % of control
[11]
  T/C: 107 % of control
[12]
  T/C: 92 % of control

## Cc1nc(Nc2ccccc2)c2c(C)c[nH]c2n1
[3]
  T/C: 100 % of control
[4]
  T/C: 94 % of control

## CN1CC[C@H]([C@@H](O)c2ccccc2)C1=O
[15]
  T/C: 102 % of control
[16]
  T/C: 102 % of control
[17]
  T/C: 107 % of control

## CCCCCCC(=O)/C=C/c1cccc(OCc2ccccc2)c1
[3]
  T/C: 90 % of control
[4]
  T/C: 87 % of control
[5]
  T/C: 94 % of control

## O=S(=O)(N/N=C/c1cccc(Cl)c1)c1ccccc1
[13]
  T/C: 109 % of control
[14]
  T/C: 104 % of control
dose: 240.0 mg/kg/injection, schedule: Q01DX005 (ip), vehicle: Klucel (hydroxypropylcellulose) (HPC)
  T/C: 105 % of control

## S=[As]1(c2cccc3ccccc23)c2ccccc2-c2ccccc21
[9]
  T/C: 106 % of control
dose: 60.0 mg/kg/injection, schedule: Q01DX009 (ip), vehicle: saline with Tween-80
  T/C: 100 % of control
dose: 120.0 mg/kg/injection, schedule: Q01DX009 (ip), vehicle: saline with Tween-80
  T/C: 110 % of control

## Cc1[nH][nH]c(=O)c1C=Nc1ccccc1
[3]
  T/C: 103 % of control
[4]
  T/C: 100 % of control
[5]
  T/C: 95 % of control
